This is an account of results in patent US8877707B2, “Inhibitors of HCV NS5A” (Presidio Pharmaceuticals, Inc., priority 2010, dated 2014).

The test system of the test is HCV genotype 1b replicon in Huh 7 cells. Kind of test: HCV replicon assay (1b_Huh-Luc/Neo-ET cell line, luciferase readout). The class given is cell-based. The conditions noted are these: Hepatitis C virus; Table 1; genotype 1b replicon, Huh 7 cells, 72 h, luciferase; read-out: Inhibition of HCV genotype 1b. In short, it runs like this:
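Replicon level was read as luciferase signal after 72 h compound exposure, triplicate wells, starting the day after cells were plated. Cell line: 1b_Huh-Luc/Neo-ET. Values normalised to control as percent, and EC50 fitted with a variable-slope sigmoid; determinations repeated.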
(A replicon is a self-replicating genome or part of one, used to study replication in cells.)
As to `COC(=O)N[C@H](C(=O)N1CCC[C@H]1c1nc2ccc(-c3cccc4c(-c5cnc([C@@H]6CCCN6C(=O)[C@H](NC(=O)OC)c6ccccc6)[nH]5)cccc34)cc2[nH]1)C(C)C` [compound 208], the EC50 was less than 1 nM.
For `COC(=O)N[C@H](C(=O)N1CCC[C@H]1c1ncc(-c2ccc3cc(-c4ccc5nc([C@@H]6CCCN6C(=O)[C@@H](NC(=O)OC)C(C)C)[nH]c5c4)ccc3n2)[nH]1)C(C)C` [compound 209], the EC50 was less than 1 nM.
The figure for `COC(=O)N[C@H](C(=O)N1CCC[C@H]1c1nc2ccc(-c3ccc4nc(-c5cnc([C@@H]6CCCN6C(=O)[C@H](NC(=O)OC)c6ccccc6)[nH]5)ccc4c3)cc2[nH]1)C(C)C` [compound 210] is less than 1 nM; for `COC(=O)N[C@H](C(=O)N1CCC[C@H]1c1nc2ccc(-c3ccc4nc(-c5cnc([C@@H]6CCCN6C(=O)[C@@H](NC(=O)OC)C6CCOCC6)[nH]5)ccc4c3)cc2[nH]1)C(C)C` [compound 211] it is less than 1 nM.
Under `COC(=O)N[C@H](C(=O)N1CCC[C@H]1c1nc2ccc(-c3ccc4cc(-c5cnc([C@@H]6CCCN6C(=O)[C@H](NC(=O)OC)c6ccccc6)[nH]5)ccc4c3)cc2[nH]1)C1CCOCC1` [compound 212] stands less than 1 nM; under `COC(=O)N[C@H](C(=O)N1CCC[C@H]1c1ncc(-c2ccc3cc(-c4ccc5nc([C@@H]6CCCN6C(=O)[C@@H](c6ccccc6)N6CCOCC6)[nH]c5c4)ccc3c2)[nH]1)C(C)C` [compound 213], less than 1 nM; under `COC(=O)N[C@H](C(=O)N1CCC[C@H]1c1ncc(-c2ccc3c(-c4ccc5[nH]c([C@@H]6CCCN6C(=O)[C@@H](NC(=O)OC)C(C)C)nc5c4)cccc3c2)[nH]1)C(C)C` [compound 214], 10 to 999 nM.
Take `COC(=O)N[C@H](C(=O)N1CCC[C@H]1c1nc2ccc(-c3cccc4c(-c5cnc([C@@H]6CCCN6C(=O)[C@@H](NC(=O)OC)C6CCOCC6)[nH]5)cccc34)cc2[nH]1)C(C)C` [compound 215]: the EC50 is less than 1 nM.
Take `COC(=O)N[C@H](C(=O)N1CCC[C@H]1c1nc2ccc(-c3cc4ccc(-c5cnc([C@@H]6CCCN6C(=O)[C@@H](NC(=O)OC)C6CCOCC6)[nH]5)cc4cn3)cc2[nH]1)C(C)C` [compound 216]: the EC50 was less than 1 nM.
On to `COC(=O)N[C@H](C(=O)N1CCC[C@H]1c1ncc(-c2ccc3cc(-c4ccc5nc([C@@H]6CCCN6C(=O)[C@@H](NC(=O)OC)C6CCOCC6)[nH]c5c4)ncc3c2)[nH]1)C1CCOCC1` [compound 217], for which the EC50 lay in the range of 1 to 9.9 nM.
Under `COC(=O)N[C@H](C(=O)N1CCC[C@H]1c1ncc(-c2ccc3cc(-c4ccc5nc([C@@H]6CCCN6C(=O)[C@@H](NC(=O)OC)C6CCCC6)[nH]c5c4)ccc3c2)[nH]1)C1CCCC1` [compound 218] stands less than 1 nM; under `COC(=O)N[C@H](C(=O)N1CCC[C@H]1c1ncc(-c2ccc3cc(-c4ccc5nc([C@@H]6CCCN6C(=O)[C@@H](NC(=O)OC)C6CCOCC6)[nH]c5c4)ncc3c2)[nH]1)C(C)C` [compound 219], less than 1 nM; under `COC(=O)N[C@H](C(=O)N1CCOC[C@H]1c1ncc(-c2ccc3cc(-c4ccc5nc([C@@H]6CCCN6C(=O)[C@@H](NC(=O)OC)C(C)C)[nH]c5c4)ccc3c2)[nH]1)C(C)C` [compound 220], less than 1 nM.
As to `COC(=O)N[C@H](C(=O)N1CCOC[C@H]1c1ncc(-c2ccc3cc(-c4ccc5nc([C@@H]6CCCN6C(=O)[C@@H](NC(=O)OC)C6CCOCC6)[nH]c5c4)ccc3c2)[nH]1)C(C)C` [compound 221], the EC50 is less than 1 nM.
The figure for `COC(=O)N[C@H](C(=O)N1CCC[C@H]1c1ncc(-c2ccc3cc(-c4ccc5nc([C@@H]6COCCN6C(=O)[C@@H](NC(=O)OC)C(C)C)[nH]c5c4)ccc3c2)[nH]1)C(C)C` [compound 222] is less than 1 nM; for `COC(=O)N[C@H](C(=O)N1CCOC[C@H]1c1nc2ccc(-c3ccc4cc(-c5cnc([C@@H]6CCCN6C(=O)[C@@H](NC(=O)OC)C6CCOCC6)[nH]5)ccc4c3)cc2[nH]1)C(C)C` [compound 223] it is less than 1 nM.
In the case of `COC(=O)N[C@H](C(=O)N1CCOC[C@H]1c1ncc(-c2ccc3cc(-c4ccc5nc([C@@H]6COCCN6C(=O)[C@@H](NC(=O)OC)C(C)C)[nH]c5c4)ccc3c2)[nH]1)C(C)C` [compound 224], the EC50 is less than 1 nM.
The figure for `CC[C@@H](C)[C@H](NC(=O)OC)C(=O)N1CCC[C@H]1c1ncc(-c2ccc3cc(-c4ccc5nc([C@@H]6CCCN6C(=O)[C@@H](NC(=O)OC)[C@H](C)CC)[nH]c5c4)ccc3c2)[nH]1` [compound 225] is less than 1 nM.
Under `CC[C@H](NC(=O)OC)C(=O)N1CCC[C@H]1c1ncc(-c2ccc3cc(-c4ccc5nc([C@@H]6CCCN6C(=O)[C@H](CC)NC(=O)OC)[nH]c5c4)ccc3c2)[nH]1` [compound 226] stands less than 1 nM; under `CCC(CC)[C@H](NC(=O)OC)C(=O)N1CCC[C@H]1c1ncc(-c2ccc3cc(-c4ccc5nc([C@@H]6CCCN6C(=O)[C@@H](NC(=O)OC)C(CC)CC)[nH]c5c4)ccc3c2)[nH]1` [compound 227], less than 1 nM; under `COC(=O)N[C@H](C(=O)N1CCC[C@H]1c1ncc(-c2ccc3cc(-c4ccc5nc([C@@H]6CCCN6C(=O)[C@@H](NC(=O)OC)C6CC6)[nH]c5c4)ccc3c2)[nH]1)C1CC1` [compound 228], less than 1 nM.
The figure for `COC(=O)N[C@H](C(=O)N1CCC[C@H]1c1ncc(-c2ccc(-c3nc4ccc(-c5cnc([C@@H]6CCCN6C(=O)[C@@H](NC(=O)OC)C(C)C)[nH]5)cc4s3)cc2)[nH]1)C(C)C` [compound 229] is less than 1 nM; for `COC(=O)N[C@@H](C(=O)N1CCC[C@H]1c1ncc(-c2ccc(-c3nc4ccc(-c5cnc([C@@H]6CCCN6C(=O)[C@H](NC(=O)OC)c6ccccc6)[nH]5)cc4s3)cc2)[nH]1)c1ccccc1` [compound 230] it is less than 1 nM.
For `COC(=O)N[C@H](C(=O)N1CCC[C@H]1c1ncc(-c2ccc(-c3nc4ccc(-c5cnc([C@@H]6CCCN6C(=O)[C@@H](NC(=O)OC)C(C)C)[nH]5)cc4n3C)cc2)[nH]1)C(C)C` [compound 231], the EC50 was less than 1 nM.
The figure for `COC(=O)N[C@H](C(=O)N1CCC[C@H]1c1ncc(-c2ccc(-c3nc4cc(-c5cnc([C@@H]6CCCN6C(=O)[C@@H](NC(=O)OC)C(C)C)[nH]5)ccc4n3C)cc2)[nH]1)C(C)C` [compound 232] is less than 1 nM; for `COC(=O)N[C@@H](C(=O)N1CCC[C@H]1c1ncc(-c2ccc(-c3nc4cc(-c5cnc([C@@H]6CCCN6C(=O)[C@H](NC(=O)OC)c6ccccc6)[nH]5)ccc4n3C)cc2)[nH]1)c1ccccc1` [compound 233] it is less than 1 nM.
For `COC(=O)N[C@H](C(=O)N1CCC[C@H]1c1ncc(-c2ccc(-c3nc4ccc(-c5cnc([C@@H]6CCCN6C(=O)[C@@H](NC(=O)OC)C(C)C)[nH]5)cc4o3)cc2)[nH]1)C(C)C` [compound 234], the EC50 was less than 1 nM.
Turning to `COC(=O)N[C@@H](C(=O)N1CCC[C@H]1c1ncc(-c2ccc(-c3nc4ccc(-c5cnc([C@@H]6CCCN6C(=O)[C@H](NC(=O)OC)c6ccccc6)[nH]5)cc4o3)cc2)[nH]1)c1ccccc1` [compound 235], the EC50 was less than 1 nM.
Under `COC(=O)N[C@H](C(=O)N1CCC[C@H]1c1ncc(-c2ccc(-c3nc4cc(-c5cnc([C@@H]6CCCN6C(=O)[C@@H](NC(=O)OC)C(C)C)[nH]5)ccc4o3)cc2)[nH]1)C(C)C` [compound 236] stands less than 1 nM.
Under `COC(=O)N[C@@H](C(=O)N1CCC[C@H]1c1ncc(-c2ccc(-c3nc4cc(-c5cnc([C@@H]6CCCN6C(=O)[C@H](NC(=O)OC)c6ccccc6)[nH]5)ccc4o3)cc2)[nH]1)c1ccccc1` [compound 237] stands less than 1 nM; under `COC(=O)N[C@H](C(=O)N1CCC[C@H]1c1ncc(-c2ccc(-c3nc4cc(-c5cnc([C@@H]6CCCN6C(=O)[C@@H](NC(=O)OC)[C@@H](C)OC)[nH]5)ccc4o3)cc2)[nH]1)[C@@H](C)OC` [compound 238], less than 1 nM.
For `COC(=O)N[C@H](C(=O)N1CCC[C@H]1c1ncc(-c2ccc(-c3nc4cc(-c5cnc([C@@H]6CCCN6C(=O)[C@@H](NC(=O)OC)C6CC6)[nH]5)ccc4o3)cc2)[nH]1)C1CC1` [compound 239], the EC50 was less than 1 nM.
As for `COC(=O)N[C@H](C(=O)N1CCC[C@H]1c1ncc(-c2ccc(-c3nc4cc(-c5cnc([C@@H]6CCCN6C(=O)[C@@H](NC(=O)OC)C(C)C)[nH]5)ccc4s3)cc2)[nH]1)C(C)C` [compound 240], the EC50 was less than 1 nM.
As for `COC(=O)N[C@H](C(=O)N1CCC[C@H]1c1ncc(-c2ccc(-c3nc4ccc(-c5cnc([C@@H]6CCCN6C(=O)[C@H](NC(=O)OC)c6ccccc6)[nH]5)cc4s3)cc2)[nH]1)C(C)C` [compound 241], the EC50 was less than 1 nM.
Under `COC(=O)N[C@H](C(=O)N1CCC[C@H]1c1ncc(-c2ccc(-c3nc4ccc(-c5cnc([C@@H]6CCCN6C(=O)[C@H](NC(=O)OC(C)(C)C)c6ccccc6)[nH]5)cc4s3)cc2)[nH]1)C(C)C` [compound 242] stands less than 1 nM.
Under `COC(=O)N[C@H](C(=O)N1CCCC[C@H]1c1ncc(-c2ccc(-c3nc4ccc(-c5cnc([C@@H]6CCCCN6C(=O)[C@@H](NC(=O)OC)C(C)C)[nH]5)cc4s3)cc2)[nH]1)C(C)C` [compound 243] stands less than 1 nM.
Take `CCNC(=O)N[C@@H](C(=O)N1CCC[C@H]1c1ncc(-c2ccc3nc(-c4ccc(-c5cnc([C@@H]6CCCN6C(=O)[C@@H](NC(=O)OC)C(C)C)[nH]5)cc4)sc3c2)[nH]1)c1ccccc1` [compound 244]: the EC50 is less than 1 nM.
The figure for `CNC(=O)N[C@@H](C(=O)N1CCC[C@H]1c1ncc(-c2ccc3nc(-c4ccc(-c5cnc([C@@H]6CCCN6C(=O)[C@@H](NC(=O)OC)C(C)C)[nH]5)cc4)sc3c2)[nH]1)c1ccccc1` [compound 245] is less than 1 nM; for `COC(=O)N[C@H](C(=O)N1CCC[C@H]1c1ncc(-c2ccc(-c3nc4ccc(-c5cnc([C@@H]6CCCN6C(=O)OCc6ccccc6)[nH]5)cc4s3)cc2)[nH]1)C(C)C` [compound 246] it is less than 1 nM.
Under `COC(=O)N[C@H](C(=O)N1CCC[C@H]1c1ncc(-c2ccc(-c3nc4ccc(-c5cnc([C@@H]6CCCN6C(=O)[C@H](NC(=O)OC(C)(C)C)c6ccccc6)[nH]5)cc4o3)cc2)[nH]1)C(C)C` [compound 247] stands less than 1 nM.
